Measurements taken from patent US20240408129A1, “TISSUE FORMATION AGENT” (NATIONAL UNIVERSITY CORPORATION SHIGA UNIVERSITY OF MEDICAL …, priority 2021, published 2024).

System: tissue between the subcutaneous fascia of the rat back
Conditions: in vivo, sc
Experimental: Six rats (Wistar/ST female) were anesthetized by intraperitoneal administration of pentobarbital and inhalation of isoflurane, and each of the solutions (physiological saline and a 2% aqueous solution of low-endotoxin sodium alginate AL2) was individually injected (implanted) in an amount of 1 ml into the tissue between the subcutaneous fascia at a subcutaneous depth of about 1 cm at each of eight sites from the upper back to the lower back, using 1-ml syringe and a 23 G needle. The injection of each solution was performed after randomization. Each needle entry site was sutured with one stitch of 5-0 proline thread.
After 3 weeks, each rat was sacrificed by pentobarbital overdose, and the back implantation sites were cut out and immersion-fixed in a 10% formaldehyde solution. The fixed tissues were subjected to hematoxylin-eosin staining (HE staining) and safranin-O staining (SOFG staining) according to usual methods.
After 12 weeks, HE staining and SOFG staining were performed in the same manner as in Example 1.
Rats in which implantation was performed in the same manner as in Example 4 were subjected to MTC staining, and type I collagen staining in addition to HE staining and SOFG staining. […] MTC staining and type I collagen staining were performed according to usual methods. […]

## collagen
  retention / residual implanted material at injection site: present in an amorphous state at the injection sites
